{
  "source": "ChEMBL document CHEMBL1212706",
  "about": "“A potent mechanism-inspired O-GlcNAcase inhibitor that blocks phosphorylation of tau in vivo” (Nat Chem Biol, 2008)",
  "key": {"Rattus norvegicus [1]": {"test_system": "Rattus norvegicus", "experiment": "Reduction in tau protein phosphorylation at Ser396 in Sprague-Dawley rat brain CA1 region at 200 mg/kg, po by […]", "type": "functional, organism-based", "parameters": "dose 200 mg/kg"}, "Rattus norvegicus [2]": {"test_system": "Rattus norvegicus", "experiment": "Induction of O-GlcNAc level in rat at 50 mg/kg, iv by Western blot analysis", "type": "functional, organism-based", "parameters": "dose 50 mg/kg", "details": "TDE = time-dependent effect"}, "Rattus norvegicus [3]": {"test_system": "Rattus norvegicus", "experiment": "Decrease in pThr231 immunoreactivity in Sprague-Dawley rat brain pyramidal cell layer of CA1 region at 200 mg/kg, po by […]", "type": "functional, organism-based", "parameters": "dose 200 mg/kg"}, "[4]": {"target": "T1, Alpha-galactosidase (Thermotoga maritima) (UniProt G4FEF4)", "T1 sequence (whole entry)": "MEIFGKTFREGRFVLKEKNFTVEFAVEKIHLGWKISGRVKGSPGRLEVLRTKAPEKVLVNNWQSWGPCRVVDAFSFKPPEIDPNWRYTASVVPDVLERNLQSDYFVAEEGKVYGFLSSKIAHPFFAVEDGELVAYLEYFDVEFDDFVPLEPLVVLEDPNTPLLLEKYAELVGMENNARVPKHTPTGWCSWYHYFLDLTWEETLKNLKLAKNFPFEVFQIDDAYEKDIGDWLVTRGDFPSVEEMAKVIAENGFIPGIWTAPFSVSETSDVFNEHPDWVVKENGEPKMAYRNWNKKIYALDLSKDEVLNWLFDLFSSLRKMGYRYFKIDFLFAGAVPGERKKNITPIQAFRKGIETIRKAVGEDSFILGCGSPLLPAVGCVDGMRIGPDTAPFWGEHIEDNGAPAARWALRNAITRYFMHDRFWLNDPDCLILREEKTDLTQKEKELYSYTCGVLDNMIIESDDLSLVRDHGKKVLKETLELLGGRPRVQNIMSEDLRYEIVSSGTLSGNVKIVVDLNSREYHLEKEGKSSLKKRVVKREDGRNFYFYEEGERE", "experiment": "Inhibition of Thermotoga maritima alpha-galactosidase"}, "Rattus norvegicus [5]": {"test_system": "Rattus norvegicus", "experiment": "Increase in O-GlcNAc immunoreactivity in Sprague-Dawley rat brain CA1 region at 200 mg/kg, po by […]", "type": "functional, organism-based", "parameters": "dose 200 mg/kg"}, "Rattus norvegicus [6]": {"test_system": "Rattus norvegicus", "experiment": "Increase in O-GlcNAc level in Sprague-Dawley rat brain pyramidal cell layer of CA1 region at 200 mg/kg, po by […]", "type": "functional, organism-based", "parameters": "dose 200 mg/kg"}, "PC-12 [7]": {"test_system": "PC-12", "experiment": "Induction of O-GlcNAc level in NGF-differentiated rat PC12 cells after 24 hrs by Western blot analysis", "type": "functional, cell-based"}, "[8]": {"target": "Beta-galactosidase (Kluyveromyces lactis) (UniProt P00723)", "sequence (P00723 whole entry)": "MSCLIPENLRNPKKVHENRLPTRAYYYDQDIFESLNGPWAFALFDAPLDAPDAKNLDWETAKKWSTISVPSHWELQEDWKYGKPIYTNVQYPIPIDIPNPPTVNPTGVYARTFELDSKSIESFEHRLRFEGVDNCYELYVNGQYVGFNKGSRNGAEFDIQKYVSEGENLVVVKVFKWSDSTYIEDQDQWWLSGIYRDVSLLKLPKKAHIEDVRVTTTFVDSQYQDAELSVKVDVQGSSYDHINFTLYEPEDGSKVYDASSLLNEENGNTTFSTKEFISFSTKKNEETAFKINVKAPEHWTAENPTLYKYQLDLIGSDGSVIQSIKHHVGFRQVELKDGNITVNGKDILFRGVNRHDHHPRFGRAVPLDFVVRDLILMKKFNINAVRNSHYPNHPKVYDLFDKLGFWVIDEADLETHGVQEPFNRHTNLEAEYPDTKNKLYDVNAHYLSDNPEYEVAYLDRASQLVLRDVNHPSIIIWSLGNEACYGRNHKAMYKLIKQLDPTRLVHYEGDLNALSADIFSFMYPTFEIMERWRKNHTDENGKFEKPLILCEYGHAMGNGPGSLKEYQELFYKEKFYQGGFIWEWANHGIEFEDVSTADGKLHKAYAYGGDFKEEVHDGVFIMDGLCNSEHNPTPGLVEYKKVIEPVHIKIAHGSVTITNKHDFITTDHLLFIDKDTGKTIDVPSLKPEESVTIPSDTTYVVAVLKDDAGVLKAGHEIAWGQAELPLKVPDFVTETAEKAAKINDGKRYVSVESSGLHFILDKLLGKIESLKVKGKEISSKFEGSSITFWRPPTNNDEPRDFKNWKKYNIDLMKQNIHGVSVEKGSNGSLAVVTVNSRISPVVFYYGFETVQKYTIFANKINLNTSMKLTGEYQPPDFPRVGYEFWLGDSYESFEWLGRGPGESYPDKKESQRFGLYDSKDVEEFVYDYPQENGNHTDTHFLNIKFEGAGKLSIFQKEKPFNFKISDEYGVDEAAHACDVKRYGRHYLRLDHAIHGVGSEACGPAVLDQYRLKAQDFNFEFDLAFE", "experiment": "Inhibition of Kluyveromyces lactis glycoside hydrolase beta-galactosidase"}, "Rattus norvegicus [9]": {"test_system": "Rattus norvegicus", "experiment": "Decrease in pThr231 immunoreactivity in Sprague-Dawley rat brain epitops of CA1 region at 200 mg/kg, po by […]", "type": "functional, organism-based", "parameters": "dose 200 mg/kg"}, "Rattus norvegicus [10]": {"test_system": "Rattus norvegicus", "experiment": "Decrease in pSer396 immunoreactivity in Sprague-Dawley rat brain pyramidal cell layer of CA1 region at 200 mg/kg, po by […]", "type": "functional, organism-based", "parameters": "dose 200 mg/kg"}, "Rattus norvegicus [11]": {"test_system": "Rattus norvegicus", "experiment": "Increase in O-GlcNAc immunoreactivity in Sprague-Dawley rat brain perikaryon at 200 mg/kg, po by […]", "type": "functional, organism-based", "parameters": "dose 200 mg/kg"}, "Rattus norvegicus [12]": {"test_system": "Rattus norvegicus", "experiment": "Decrease in pSer396 immunoreactivity in Sprague-Dawley rat brain epitops of CA1 region at 200 mg/kg, po by […]", "type": "functional, organism-based", "parameters": "dose 200 mg/kg"}, "[13]": {"experiment": "Inhibition of beta-hexosaminidase"}, "Saccharomyces cerevisiae": {"test_system": "Saccharomyces cerevisiae", "experiment": "Inhibition of Saccharomyces cerevisiae alpha-glucosidase"}, "PC-12 [14]": {"test_system": "PC-12", "experiment": "Reduction in tau protein phosphorylation at Ser396 position in NGF-differentiated rat PC12 cells after 4 hrs by Western blot analysis relative to control", "type": "functional, cell-based"}, "Rattus norvegicus [15]": {"test_system": "Rattus norvegicus", "experiment": "Reduction in tau protein phosphorylation at Thr231 in Sprague-Dawley rat brain CA1 region at 200 mg/kg, po by […]", "type": "functional, organism-based", "parameters": "dose 200 mg/kg"}, "PC-12 [16]": {"test_system": "PC-12", "experiment": "Induction of O-GlcNAc level in NGF-differentiated rat PC12 cells after 24 hrs by densitometric analysis", "type": "functional, cell-based", "details": "PC-12, 24 h"}, "PC-12 [17]": {"test_system": "PC-12", "experiment": "[…] in pSer396 immunoreactivity in NGF-differentiated rat PC12 cells after 4 hrs by Western blot analysis", "type": "functional, cell-based", "details": "TDE = time-dependent effect"}, "Rattus norvegicus [18]": {"test_system": "Rattus norvegicus", "experiment": "Increase in O-GlcNAc immunoreactivity in Sprague-Dawley rat brain nucleus at 200 mg/kg, po by […]", "type": "functional, organism-based", "parameters": "dose 200 mg/kg"}, "Canavalia ensiformis": {"test_system": "Canavalia ensiformis", "experiment": "Inhibition of Canavalia ensiformis alpha-mannosidase"}, "[19]": {"target": "T2, Beta-hexosaminidase (Vibrio cholerae serotype O1 (strain ATCC 39315 / El Tor Inaba N16961)) (UniProt Q9KU37)", "T2 sequence (whole entry)": "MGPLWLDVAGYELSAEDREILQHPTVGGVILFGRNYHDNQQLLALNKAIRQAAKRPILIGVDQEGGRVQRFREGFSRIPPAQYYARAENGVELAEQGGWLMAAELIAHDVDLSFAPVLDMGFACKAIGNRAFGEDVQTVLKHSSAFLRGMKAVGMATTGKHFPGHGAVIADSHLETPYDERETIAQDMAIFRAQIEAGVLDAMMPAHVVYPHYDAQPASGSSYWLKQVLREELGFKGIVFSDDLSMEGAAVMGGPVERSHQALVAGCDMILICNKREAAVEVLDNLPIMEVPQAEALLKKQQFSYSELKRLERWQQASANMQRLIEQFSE", "experiment": "Inhibition of Vibrio cholerae glycoside hydrolase NagZ"}, "PC-12 [20]": {"test_system": "PC-12", "experiment": "Induction of O-GlcNAc level in NGF-differentiated rat PC12 cells at >25 uM by Western blot analysis", "type": "functional, cell-based", "details": "TDE = time-dependent effect"}, "[21]": {"experiment": "Inhibition of human lysosomal beta-hexosaminidase"}, "Homo sapiens": {"species_on_record": "Homo sapiens", "experiment": "Selectivity for human O-GlcNAcase over human lysosomal beta-hexosaminidase"}, "Protein O-GlcNAcase": {"target": "T3, Protein O-GlcNAcase (Homo sapiens, UniProt O60502)", "T3 sequence (O60502 whole entry)": "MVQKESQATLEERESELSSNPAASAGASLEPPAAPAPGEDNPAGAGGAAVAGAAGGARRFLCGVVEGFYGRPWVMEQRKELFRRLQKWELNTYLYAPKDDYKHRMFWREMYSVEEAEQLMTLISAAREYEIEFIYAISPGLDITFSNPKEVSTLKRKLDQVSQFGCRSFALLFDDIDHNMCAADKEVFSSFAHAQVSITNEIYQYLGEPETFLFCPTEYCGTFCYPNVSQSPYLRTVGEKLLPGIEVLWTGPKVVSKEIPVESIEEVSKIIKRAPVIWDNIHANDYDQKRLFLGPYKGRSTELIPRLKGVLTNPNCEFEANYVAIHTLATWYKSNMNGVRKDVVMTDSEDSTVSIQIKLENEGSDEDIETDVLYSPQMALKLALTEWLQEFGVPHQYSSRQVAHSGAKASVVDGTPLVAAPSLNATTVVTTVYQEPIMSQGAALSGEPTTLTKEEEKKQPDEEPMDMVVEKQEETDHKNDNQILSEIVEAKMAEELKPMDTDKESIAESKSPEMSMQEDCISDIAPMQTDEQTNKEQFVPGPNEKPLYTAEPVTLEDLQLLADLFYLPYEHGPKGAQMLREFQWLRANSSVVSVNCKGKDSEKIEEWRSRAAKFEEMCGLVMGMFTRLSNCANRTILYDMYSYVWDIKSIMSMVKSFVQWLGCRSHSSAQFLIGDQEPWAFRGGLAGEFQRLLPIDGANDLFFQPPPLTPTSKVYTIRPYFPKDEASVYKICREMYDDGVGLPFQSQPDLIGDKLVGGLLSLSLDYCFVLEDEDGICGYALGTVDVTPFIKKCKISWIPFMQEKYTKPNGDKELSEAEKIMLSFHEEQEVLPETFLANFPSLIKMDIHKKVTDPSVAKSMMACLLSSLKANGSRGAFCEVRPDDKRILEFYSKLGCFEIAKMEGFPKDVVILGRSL", "experiment": "Inhibition of human O-GlcNAcase"}},
  "note": "Calls of active or inactive are those of the source. The calls are words filed in the database; no cut-off is given here.",
  "data": [
    {"compound": "CCNC1=N[C@@H]2[C@@H](O)[C@H](O)[C@@H](CO)O[C@@H]2S1", "values": [
      {"measurement": "Activity", "setting": "Rattus norvegicus [1]", "result": "Active"},
      {"measurement": "Activity", "setting": "Rattus norvegicus [2]", "result": "tde"},
      {"measurement": "Activity", "setting": "Rattus norvegicus [3]", "result": "Active"},
      {"measurement": "inhibition", "setting": "[4]", "result": "inactive"},
      {"measurement": "Activity", "setting": "Rattus norvegicus [5]", "result": "Active"},
      {"measurement": "Activity", "setting": "Rattus norvegicus [6]", "result": "Active"},
      {"measurement": "Activity", "setting": "PC-12 [7]", "result": "Dose-dependent effect"},
      {"measurement": "inhibition", "setting": "[8]", "result": "inactive"},
      {"measurement": "Activity", "setting": "Rattus norvegicus [9]", "result": "Active"},
      {"measurement": "Activity", "setting": "Rattus norvegicus [10]", "result": "Active"},
      {"measurement": "Activity", "setting": "Rattus norvegicus [11]", "result": "Active"},
      {"measurement": "Activity", "setting": "Rattus norvegicus [12]", "result": "Active"},
      {"measurement": "inhibition", "setting": "[13]", "result": "inactive"},
      {"measurement": "inhibition", "setting": "Saccharomyces cerevisiae", "result": "inactive"},
      {"measurement": "Activity", "setting": "PC-12 [14]", "result": "Dose-dependent effect"},
      {"measurement": "Activity", "setting": "Rattus norvegicus [15]", "result": "Active"},
      {"measurement": "EC50", "setting": "PC-12 [16]", "result": 30, "unit": "nM"},
      {"measurement": "Activity", "setting": "PC-12 [17]", "result": "tde"},
      {"measurement": "Activity", "setting": "Rattus norvegicus [18]", "result": "Active"},
      {"measurement": "inhibition", "setting": "Canavalia ensiformis", "result": "inactive"},
      {"measurement": "inhibition", "setting": "[19]", "result": "inactive"},
      {"measurement": "Activity", "setting": "PC-12 [20]", "result": "tde"},
      {"measurement": "Ki", "setting": "[21]", "result": 750, "unit": "µM"}
    ]},
    {"compound": "CCCC1=N[C@@H]2[C@@H](O)[C@H](O)[C@@H](CO)O[C@@H]2S1", "values": [
      {"measurement": "fold change (FC)", "setting": "Homo sapiens", "result": 800},
      {"measurement": "Ki", "setting": "Protein O-GlcNAcase", "result": 600, "unit": "nM"}
    ]},
    {"compound": "CC(=O)N[C@H]1c2nc(CC(=O)O)cn2[C@H](CO)[C@@H](O)[C@@H]1O", "values": [
      {"measurement": "Ki", "setting": "Protein O-GlcNAcase", "result": 420, "unit": "nM"}
    ]}
  ]
}
